Common to all, as to type: cell-based
Data set [1] in a line: Off-target cytotoxicity, MT-4 cells (Cell Titer Glo, 5 days). Conditions: human, MT-4, five days incubation, intracellular ATP, read-out: CC50 (MT4). The source says: (§1) To assess potential off-target toxicity of certain compounds disclosed herein, the in vitro cytotoxicity of those compounds was profiled using a panel of 5 cell lines with various tissue origins. Compound cytotoxicity was examined in hepatoma-derived Huh-7 and HepG2 cells, prostate carcinoma-derived PC-3 cells, lymphoma derived MT-4 cells and a normal diploid lung cell line MRC-5. HepG2 and PC-3 cells used were adapted to grow in glucose-free galactose-containing medium. […] Cell viability was determined by measuring intracellular ATP levels following five days of continuous incubation with test compounds.
(§2) The MT-4 cell line (HTLV-1 transformed, human T lymphoblastoid cells) was obtained from the NIH AIDS Reagent program (Bathesda, Md.). The human hepatoblastoma cell line HepG2, human prostate carcinoma cell line PC-3, and normal fetal lung derived MRC-5 cells were obtained from the American Type Culture Collection (ATCC, Manassas, Va.).
(§3) Huh-7 cells were maintained in Dulbecco's Modified Eagle Medium (DMEM) supplemented with 10% fetal bovine serum (FBS, Hyclone, Logan, Utah), 1% non-essential amino acids (Gibco, Carlsbad, Calif.). PC-3 and HepG2 cells were adapted to grow in 0.2% galactose-containing, glucose-free Dulbecco's Modified Eagle Medium (DMEM) supplemented with 10% fetal bovine serum (FBS, Hyclone, Logan, Utah), 1% non-essential amino acids (Gibco, Carlsbad, Calif.), 1% Pyruvate (Cellgro), 1% Glutamax (Invitrogen, Carlsbad, Calif.). Galactose-adapted cells were maintained in the same culture medium. MRC-5 cells were maintained in Eagle's Minimum Essential Medium (EMEM) supplemented with 10% fetal bovine serum (FBS, Hyclone, Logan, Utah). […] All cell culture media were also supplemented with 100 Units/mL penicillin, 100 μg/mL streptomycin (Gibco).
For the MT-4 cytotoxicity assay, 0.4 μL of serially diluted compounds were added to 40 μl of cell maintenance media in 384-well black, solid bottom plate using a Biomek FX workstation (Beckman Coulter). Two thousand cells in 35 μL were added to each well using a Biotek uFlow Workstation (Biotek). […] Assay plates were incubated for five days at 37° C. in an incubator set at 5% CO2 and 90% humidity. After five days, 22 μL of Cell Titer Glo reagent (Promega) was added to the assay plates with a Biotek uFlow Workstation. Plates were subsequently placed on a Perkin Elmer Envision Plate Reader for five minutes before the luminescence signal was read.

Data set [2] is described as follows: Off-target cytotoxicity, galactose-adapted PC-3 cells (Cell Titer Glo, 5 days). Conditions: human, galactose-adapted PC-3, five days incubation, intracellular ATP, read-out: CC50 GALFC3 CTG 50.
From the text: as §1, §2, §3
Using a Biotek uFlow Workstation (Biotek, Winooski, Vt.), 1500 HepG2, 1500 PC-3, 500 Huh7 or 1500 MRC-5 cells in 90 μL of culture media were dispensed into each well of black polystyrene tissue culture-treated 384-well plates. Plated cells were incubated for 24 hours in an incubator at 37° C., 5% CO2 and 90% humidity. Compound serial dilutions were performed in 100% DMSO in 384-well polypropylene (high recovery) plates on a Biomek FX Workstation (Beckman Coulter, Fullerton, Calif.). After 3-fold serial dilutions, 0.4 μL of compounds were transferred into 384-well plates containing cells using a Velocity 11 system equipped with a Bravo 384-well pipettor. The DMSO concentration in the final assay plates was 0.44% (v/v). Cells were incubated with compound(s) for five days at 37° C.
(§4) At the end of the incubation period the cytotoxicity assay was performed as follows: Media from 384-well cell culture plates were aspirated with a Biotek EL405 plate-washer (Biotek) and cells were washed with 100 μL PBS once. Twenty microliters of Cell Titer Glo (Promega, Madison, Wis.) was added to each well of the plates with a Biotek uFlow liquid dispenser. Plates were incubated for 15 minutes at room temperature before luminescence was measured with a Perkin Elmer Envision Plate Reader (Perkin Elmer, Waltham, Mass.).
In general terms: ATP-based viability assays read luminescence as a measure of living cells.

Data set [3] can be described thus: Off-target cytotoxicity, galactose-adapted HepG2 cells (Cell Titer Glo, 5 days). As to conditions: human, galactose-adapted HepG2, five days incubation, intracellular ATP, read-out: CC50 GALHEPG2 CTG 50.
From the text: (§5) To assess potential off-target toxicity of certain compounds disclosed herein, the in vitro cytotoxicity of those compounds was profiled using a panel of 5 cell lines with various tissue origins. Compound cytotoxicity was examined in hepatoma-derived Huh-7 and HepG2 cells, prostate carcinoma-derived PC-3 cells, lymphoma derived MT-4 cells and a normal diploid lung cell line MRC-5. HepG2 and PC-3 cells used were adapted to grow in glucose-free galactose-containing medium. These cells have a relatively higher sensitivity to inhibitors of mitochondrial oxidative phosphorylation compared to the same cells maintained in standard glucose-containing culture medium (Marroquin et al., Toxicol. Sci. 2007; 97 (2):539-47). Cell viability was determined by measuring intracellular ATP levels following five days of continuous incubation with test compounds.
(§6) The human hepatoma Huh-7 cell line was obtained from ReBLikon GmbH (Mainz, Germany) {20879}. The MT-4 cell line (HTLV-1 transformed, human T lymphoblastoid cells) was obtained from the NIH AIDS Reagent program (Bathesda, Md.). The human hepatoblastoma cell line HepG2, human prostate carcinoma cell line PC-3, and normal fetal lung derived MRC-5 cells were obtained from the American Type Culture Collection (ATCC, Manassas, Va.).
(§7) Huh-7 cells were maintained in Dulbecco's Modified Eagle Medium (DMEM) supplemented with 10% fetal bovine serum (FBS, Hyclone, Logan, Utah), 1% non-essential amino acids (Gibco, Carlsbad, Calif.). PC-3 and HepG2 cells were adapted to grow in 0.2% galactose-containing, glucose-free Dulbecco's Modified Eagle Medium (DMEM) supplemented with 10% fetal bovine serum (FBS, Hyclone, Logan, Utah), 1% non-essential amino acids (Gibco, Carlsbad, Calif.), 1% Pyruvate (Cellgro), 1% Glutamax (Invitrogen, Carlsbad, Calif.). Galactose-adapted cells were maintained in the same culture medium. MRC-5 cells were maintained in Eagle's Minimum Essential Medium (EMEM) supplemented with 10% fetal bovine serum (FBS, Hyclone, Logan, Utah). MT-4 cells were maintained in RPMI-1640 supplemented with 10% fetal bovine serum (FBS, Hyclone, Logan, Utah). All cell culture media were also supplemented with 100 Units/mL penicillin, 100 μg/mL streptomycin (Gibco).
(§8) Using a Biotek uFlow Workstation (Biotek, Winooski, Vt.), 1500 HepG2, 1500 PC-3, 500 Huh7 or 1500 MRC-5 cells in 90 μL of culture media were dispensed into each well of black polystyrene tissue culture-treated 384-well plates. Plated cells were incubated for 24 hours in an incubator at 37° C., 5% CO2 and 90% humidity. Compound serial dilutions were performed in 100% DMSO in 384-well polypropylene (high recovery) plates on a Biomek FX Workstation (Beckman Coulter, Fullerton, Calif.). After 3-fold serial dilutions, 0.4 μL of compounds were transferred into 384-well plates containing cells using a Velocity 11 system equipped with a Bravo 384-well pipettor. The DMSO concentration in the final assay plates was 0.44% (v/v). Cells were incubated with compound(s) for five days at 37° C. Puromycin (44 μM final concentration) and DMSO (0.44%, v/v) were used as a positive and negative controls, respectively
as §4
(§9) CC50 values were defined as the compound concentration that caused a 50% decrease in luminescence signal, and were calculated by non-linear regression using Pipeline Pilot software by applying a four parameter fit equation (Accelrys, San Diego, Calif.). Individual CC50 values are listed as μM concentrations.

A further data set has as its system Huh-7 cells. The data set is described as follows: Off-target cytotoxicity, Huh-7 cells (Cell Titer Glo, 5 days). Conditions: Huh-7, five days incubation, intracellular ATP; read-out: CC50 HEH7 CTG 50.
From the text: as §5, §6, §7, §8, §4, §9

A further data set relates to MRC-5 cells. The experiment in a line: Off-target cytotoxicity, MRC-5 cells (Cell Titer Glo, 5 days). As to conditions: MRC-5, five days incubation, intracellular ATP; read-out: CC50 MHCS CTG 50.
From the text: as §5, §6, §7, §8, §4, §9

For the next data set, the target named is T1, human TLR7 (Homo sapiens, UniProt Q9NYK1).
T1 construct: host or cells: HEK-Blue human TLR7 cells (HEK293-derived reporter line)
T1 sequence (Q9NYK1 27-1049): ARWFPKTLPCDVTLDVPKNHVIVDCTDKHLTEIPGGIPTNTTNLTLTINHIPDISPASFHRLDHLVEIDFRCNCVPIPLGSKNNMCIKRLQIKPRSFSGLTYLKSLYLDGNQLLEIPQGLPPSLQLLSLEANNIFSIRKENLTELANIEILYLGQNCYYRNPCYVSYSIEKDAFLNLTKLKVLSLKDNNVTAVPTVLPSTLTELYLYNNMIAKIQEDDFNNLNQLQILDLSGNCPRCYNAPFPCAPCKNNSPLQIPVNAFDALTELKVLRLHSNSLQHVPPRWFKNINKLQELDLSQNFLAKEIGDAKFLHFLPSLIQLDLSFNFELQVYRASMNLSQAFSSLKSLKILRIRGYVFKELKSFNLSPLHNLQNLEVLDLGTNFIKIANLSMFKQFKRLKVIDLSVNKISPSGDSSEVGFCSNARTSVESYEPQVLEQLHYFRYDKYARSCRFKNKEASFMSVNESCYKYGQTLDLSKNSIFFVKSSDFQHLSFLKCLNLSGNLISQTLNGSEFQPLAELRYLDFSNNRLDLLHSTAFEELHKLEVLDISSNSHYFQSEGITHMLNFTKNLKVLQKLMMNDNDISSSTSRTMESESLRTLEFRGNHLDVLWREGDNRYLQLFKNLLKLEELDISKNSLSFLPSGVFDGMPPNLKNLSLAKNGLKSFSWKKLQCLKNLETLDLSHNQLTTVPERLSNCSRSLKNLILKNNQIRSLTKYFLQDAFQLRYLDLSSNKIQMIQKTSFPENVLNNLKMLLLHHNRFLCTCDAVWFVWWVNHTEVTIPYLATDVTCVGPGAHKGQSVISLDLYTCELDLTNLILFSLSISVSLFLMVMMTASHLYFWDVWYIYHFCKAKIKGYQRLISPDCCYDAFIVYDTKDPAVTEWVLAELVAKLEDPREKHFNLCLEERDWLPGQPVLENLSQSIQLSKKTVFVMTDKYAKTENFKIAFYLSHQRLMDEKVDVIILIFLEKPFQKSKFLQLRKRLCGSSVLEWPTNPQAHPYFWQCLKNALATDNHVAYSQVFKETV
The data set is described as follows: HEK-Blue human TLR7 cell SEAP reporter assay (NF-κB activation). As to conditions: HEK-Blue human TLR7 cells, stimulation for 20 hours, Quanti Blue read at 640 nm. The source says:
For TLR8 and TLR7 activity testing, HEK-Blue human TLR8 or TLR7 cells (Invivogen, San Diego, Calif., USA) are used, respectively. These cells are designed for studying the stimulation of human TLR8 or TLR7 by monitoring the activation of NF-κB. A SEAP (secreted embryonic alkaline phosphatase) reporter gene is placed under the control of the IFN-b minimal promoter fused to five NF-κB and AP-1-binding sites. Therefore the reporter expression is regulated by the NF-κB promoter upon stimulation of human TLR8 or TLR7 for 20 hours. The cell culture supernatant SEAP reporter activity was determined using Quanti Blue kit (Invivogen, San Diego, Ca, USA) at a wavelength of 640 nm, a detection medium that turns purple/blue in the presence of alkaline phosphatase. EC50 values were determined using Activity Base analysis (ID Business Solution, Limited).
In general terms: A reporter such as luciferase makes a cellular process visible.

One may read the CC50 as the concentration giving 50% cytotoxicity. For the molecule `CCCC[C@H](CNC(C)=O)Nc1nc(N)nc2cccnc12` [Compound 51, (R)—N-(2-((2-aminopyrido[3,2-d]pyrimidin-4-yl)amino)hexyl)acetamide], the 50% cytotoxic concentration (CC50) at 5 days in data set [1] was 57.1 µM; in data set [2] it was 37.2 µM; in data set [3], at least 44.4 µM. In addition, the CC50 in the data set on Huh-7 cells and in the data set on MRC-5 cells was 44.4 µM in each case.

The EC50 is the midpoint of the concentration-response curve. Molecule `CCCN(CCC)C(=O)C1=Cc2ccc(C3=NCc4ccccc4N3)cc2N=C(N)C1` [Example 1, 2-Amino-8-(1,4-dihydroquinazolin-2-yl)-N,N-dipropyl-3H-1-benzazepine-4-carboxamide] displayed a concentration giving a half-maximal response (EC50) on human TLR7 above 100 µM.

For the molecule `CCCC[C@](C)(CNC(C)=O)Nc1nc(N)nc2cc(Cl)cnc12` [Compound 65, (R)—N-(2-((2-amino-7-chloropyrido[3,2-d]pyrimidin-4-yl)amino)-2-methylhexyl)acetamide], the CC50 at 5 days in data set [1] was 56.6 µM; in data set [2] it was 44.4 µM; in data set [3], at least 44.4 µM. Also, the 50% cytotoxic concentration (CC50) with Huh-7 cells and with MRC-5 cells was 44.4 µM in each case.

Molecule `CCCN(CCC)C(=O)C1=Cc2ccc(C3=NCc4c(Cl)cccc4N3)cc2N=C(N)C1` [Example 5, 2-Amino-8-(5-chloro-1,4-dihydroquinazolin-2-yl)-N,N-dipropyl-3H-1-benzazepine-4-carboxamide] gave an EC50 on human TLR7 above 100 µM.

Regarding `CCCN(CC1CC1)C(=O)C1=Cc2ccc(C3=NCc4ccccc4N3)cc2N=C(N)C1` [Example 3, 2-Amino-N-(cyclopropylmethyl)-8-(1,4-dihydroquinazolin-2-yl)-N-propyl-3H-1-benzazepine-4-carboxamide], the EC50 on human TLR7 is above 100 µM.

At human TLR7, `CCCN(CCC)C(=O)C1=Cc2ccc(C3=NCc4ccncc4N3)cc2N=C(N)C1` [Example 2, 2-Amino-8-(1,4-dihydropyrido[3,4-d]pyrimidin-2-yl)-N,N-dipropyl-3H-1-benzazepine-4-carboxamide] showed an EC50 above 100 µM.

With `CCCC[C@](C)(CNC(C)=O)Nc1nc(N)nc2cccnc12` [Compound 61], the CC50 at 5 days is 212 µM in data set [1], 44.4 µM in data set [2] and at least 44.4 µM in data set [3]. The CC50 in the data set on Huh-7 cells and in the data set on MRC-5 cells was 44.4 µM in each case.

In the case of `CCCN(CC(C)C)C(=O)C1=Cc2ccc(C3=NCc4ccccc4N3)cc2N=C(N)C1` [Example 4, 2-Amino-8-(1,4-dihydroquinazolin-2-yl)-N-isobutyl-N-propyl-3H-1-benzazepine-4-carboxamide], at human TLR7, the EC50 was above 100 µM.

In turn, `CCCN(CCC)C(=O)C1=Cc2ccc(C3=NCc4ccc(Cl)cc4N3)cc2N=C(N)C1` [Example 6, 2-Amino-8-(7-chloro-1,4-dihydroquinazolin-2-yl)-N,N-dipropyl-3H-1-benzazepine-4-carboxamide] gave an EC50 on human TLR7 above 100 µM.

Source of the values: patent US20220305115A1 (JANSSEN SCIENCES IRELAND UNLIMITED COMPANY, priority 2019, published 2022).
